# Key:
# Format in all cases: cell-based
# [1] = test system: Corynebacterium; experiment: MIC and synergism (Kull) against Corynebacterium, Landy minimal medium pH 9
# Protocol: (§1) The synergism was determined by the method described by Kull et al. (F. C. Kull, P. C. Eismann, H. D. Sylvestrowicz, R. L. Mayer, Applied Microbiology 9, 538 to 541, 1961). The following relationships apply:
# (§2) [formula] • Qa=amount of substance A • Qb=amount of substance B • MIC(A)=concentration of substance A which prevents microbial growth • MIC(B)=concentration of substance B which prevents microbial growth • MIC(A+B)=concentration of substance A+B which prevents microbial growth • SI=synergistic index, where SI=1 means additive effect • SI>1 means antagonism • SI<1 means synergism
# (§3) Various concentrations of GDA and MIT and mixtures of the two abovementioned active substances were tested against the bacterium Corynebacterium. The incubation is performed in Landy minimal medium at pH 9 and 26° C. The growth of Corynebacterium was compared at the various active substance concentrations with the growth without active substance. The lowest concentration at which growth was no longer detected is stated as the minimum inhibitory concentration (MIC).
# [2] = test system: Rhodotorula rubra; experiment: MIC and synergism (Kull) against yeast Rhodotorula rubra, malt extract liquid medium
# Protocol: as §1, §2
# as §3, with “yeast Rhodotorula rubra.” for “bacterium Corynebacterium.”, “malt extract liquid” for “Landy minimal”, “at” for “at pH 9 and”, “Rhodotorula rubra” for “Corynebacterium”
# [3] = test system: Pseudomonas fluorescens; experiment: MIC and synergism (Kull) against Pseudomonas fluorescens, Landy minimal medium pH 9
# Protocol: as §1, §2
# as §3, with “Pseudomonas fluorescens.” for “Corynebacterium.”, “Pseudomonas fluorescens” for “Corynebacterium”
# [4] = test system: Pseudomonas fluorescens; experiment: MIC and synergism (Kull) against Pseudomonas fluorescens, Landy minimal medium pH 7
# Protocol: as §1, §2
# as §3, with “Pseudomonas fluorescens.” for “Corynebacterium.”, “7” for “9”, “Pseudomonas fluorescens” for “Corynebacterium”, “at” for “at the”
# [5] = Landy minimal medium, pH 9, 26° C.
"MIC [1, 5] [ppm]","MIC ([2]; Rhodotorula rubra, malt extract liquid medium, 26° C.) [ppm]","MIC [3, 5] [ppm]","MIC ([4]; Landy minimal medium, pH 7, 26° C.) [ppm]",Structure (SMILES),MIC ([1]; pH 9) [µg/mL],MIC ([2]; Rhodotorula) [µg/mL],MIC ([3]; pH 9) [µg/mL],MIC ([4]; pH 7) [µg/mL]
,,,,"Cn1sccc1=O [MIT, 2-methyl-2H-isothiazol-3-one]",5,50,20,5
10,100,50,20,"O=CCCCC=O [GDA, glutardialdehyde]",,,,

# — patent US20110009462A1, “STABLE, SYNERGISTIC MIXTURES” (LANXESS DEUTSCHLAND GMBH, priority 2007, published 2011)
